Assay: Solubility of the compound of Formula (I) in aqueous media without surfactant
Assay type: physicochemical
Conditions: aqueous buffer; hydrochloric acid solution, buffer, and water without surfactant, 37° C., pH 1.0˜9.0
Protocol: The very low solubility limits its use in the development as a drug candidate. Chinese patent application 202010105909.9 reports a semi-solid capsule technology that can substantially increase the dissolution of the compound shown in Formula (I), but the capsule needs to be stored in a cool place below room temperature, not exceeding 15° C., specifically in a closed container at 2 to 8° C.

solubility: < 0.5 ng/mL
Compound: Cc1cc(OC[P@@]2(=O)OCC[C@@H](c3cccc(Cl)c3)O2)cc(C)c1Cc1ccc(O)c(C(C)C)c1 [Formula (I) compound]
